The results in this text go back to PMC6359144 (International Journal of Molecular Sciences, 2019).

Data set [1] addresses T1, recombinant human HDAC6 (Homo sapiens, UniProt Q9UBN7).
T1 construct: purchased Biovision
T1 sequence (Q9UBN7 1-1215): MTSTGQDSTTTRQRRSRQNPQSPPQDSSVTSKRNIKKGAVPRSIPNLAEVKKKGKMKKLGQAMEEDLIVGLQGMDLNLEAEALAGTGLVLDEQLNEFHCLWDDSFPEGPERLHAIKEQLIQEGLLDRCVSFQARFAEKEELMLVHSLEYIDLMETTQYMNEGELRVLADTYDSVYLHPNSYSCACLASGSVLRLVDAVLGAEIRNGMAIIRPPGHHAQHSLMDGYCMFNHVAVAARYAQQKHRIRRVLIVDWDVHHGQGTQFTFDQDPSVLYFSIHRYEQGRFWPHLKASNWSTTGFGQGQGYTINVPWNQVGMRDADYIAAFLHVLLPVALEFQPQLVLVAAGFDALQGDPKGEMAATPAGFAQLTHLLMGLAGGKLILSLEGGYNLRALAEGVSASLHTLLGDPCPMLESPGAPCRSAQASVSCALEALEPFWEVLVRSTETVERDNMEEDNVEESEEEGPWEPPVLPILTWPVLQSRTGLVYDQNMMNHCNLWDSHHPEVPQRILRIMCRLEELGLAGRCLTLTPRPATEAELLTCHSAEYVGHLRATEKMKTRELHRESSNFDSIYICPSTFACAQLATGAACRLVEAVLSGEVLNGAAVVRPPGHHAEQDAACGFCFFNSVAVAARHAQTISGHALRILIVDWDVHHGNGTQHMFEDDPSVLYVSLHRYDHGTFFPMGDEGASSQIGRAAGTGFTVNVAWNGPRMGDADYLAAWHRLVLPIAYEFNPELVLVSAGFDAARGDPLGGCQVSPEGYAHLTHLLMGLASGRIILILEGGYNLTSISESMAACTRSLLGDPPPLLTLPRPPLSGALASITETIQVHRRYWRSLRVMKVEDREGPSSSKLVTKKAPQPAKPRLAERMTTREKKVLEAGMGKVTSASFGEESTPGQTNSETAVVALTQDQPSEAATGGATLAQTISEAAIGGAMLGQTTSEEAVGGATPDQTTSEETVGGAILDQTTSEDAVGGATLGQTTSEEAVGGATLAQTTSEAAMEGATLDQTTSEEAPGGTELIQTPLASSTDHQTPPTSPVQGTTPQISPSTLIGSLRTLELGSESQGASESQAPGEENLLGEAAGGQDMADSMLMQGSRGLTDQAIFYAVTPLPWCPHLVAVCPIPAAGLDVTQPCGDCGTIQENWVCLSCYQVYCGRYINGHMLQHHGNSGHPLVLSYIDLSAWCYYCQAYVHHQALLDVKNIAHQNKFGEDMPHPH
In words: HDAC6 inhibitor screening assay (fluorometric). It is filed as biochemical. Particulars: recombinant human HDAC6, mean ± SD of two experiments; read-out: HDAC inhibition IC50, HDAC6. As for the experimental part: The HDAC inhibitory potential of the novel compounds was determined by utilizing the deacetylase activity of recombinant human HDAC1 (HDAC1 Inhibitor Screening Assay Kit; Cayman Chemicals) or HDAC6 (HDAC6 Inhibitor Screening Kit (Fluorometric); Biovision) towards the corresponding synthetic acetylated-peptide substrates resulting in the release of a fluorescent product. The assays were performed according to manufacturer’s description of the in commercially available assay kits. […] The IC50 values were derived from dose-response curves and are expressed as the means ± SD of two independent experiments.

Data set [2] relates to p21, p27, cyclin D1 in 518A2 melanoma cells. In words: Western blot of cell cycle regulatory proteins. The data set is classed as cell-based, human. Particulars: 24 h; for effect on p21 expression: 4d […]–4 µM, SAHA 5 µM. On the procedure: After harvesting and lysing of the cells, western blotting was performed as described before. For subsequent analysis, the protein-loaded membranes were incubated with antibodies directed against p21 (Abcam ab109199), p27 ([…]), cyclin D1 (Cell Signaling 29225) and GADPH (Santa Cruz sc25778) in 1:1000 dilutions. After incubation with horseradish peroxidase-coupled anti-IgG antibodies (1:10,000; Amersham), the blot was developed using the Celvin-S developer (Biostep) and the software SnapAndGo 1.8.1.
(In general: In western blotting, separated proteins are transferred to a membrane and probed.)

The test system of data set [3] is nude mice. In words: In vivo toxicity in nude mice. The arrangement: species or system mouse. Particulars: 1 × 100 mg/kg i.p., 1 × 200 mg/kg orally. On the procedure: In vivo toxicity of 4d was studied in nude mice (Charles River Laboratories, Sulzfeld, Germany). These experiments were carried out following the institutional guidelines. 4d was formulated in 10% Tween80/10% ethanol/80% saline for administration. […] The body weight of the mice was assessed daily under therapy.

On to `COc1ccc(-c2ocnc2-c2cc(Br)c(OC)c(OC)c2)cc1OCCCC(=O)NO` [4d, N-Hydroxy-4-[1-methoxy-4-(4’-(3’’-bromo-4’’,5’’-dimethoxyphenyl)oxazol-5’-yl)-2-phenoxy]butanamide], for which the IC50 in data set [1] was determined as 13.8 ± 0.2 µM. For the same compound, in data set [2], the “effect on p21 expression” value is reported as “distinctly suppressed p21 expression”. Besides, the “effect on cyclin D1 level” value in data set [2] (4d 0.15–4 µM) is given as “increased the level of cyclin D1”. Moreover, in data set [3], the body weight changes is on record as ≤ 5%. Further, the tolerability in mice entry in data set [3] (observed two weeks) was “tolerated well”.

With `COc1ccc(-c2ocnc2-c2cc(Br)c(OC)c(OC)c2)cc1OCCCCCC(=O)NO` [4f, N-Hydroxy-6-[1-methoxy-4-(4’-(3’’-bromo-4’’,5’’-dimethoxyphenyl)oxazol-5’-yl)-2-phenoxy]hexanamide], the IC50 in data set [1] stood at 0.32 ± 0.02 µM. In data set [2], the “effect on p21 expression” value is listed as “upregulated p21 expression in a dose-dependent way”.

As for `COc1ccc(-c2ocnc2-c2cc(Br)c(OC)c(OC)c2)cc1OCCCCC(=O)NO` [4e, N-Hydroxy-5-[1-methoxy-4-(4’-(3’’-bromo-4’’,5’’-dimethoxyphenyl)oxazol-5’-yl)-2-phenoxy]pentanamide], in data set [1], the IC50 was determined as 3.5 ± 0.1 µM.

As usually defined, the IC50 is the point on the concentration scale where inhibition reaches its midpoint.
